System: TKp53^L/Lp16^L/L melanoma cells
Assay: in vitro scratch (wound healing) assay with dasatinib
Format: cell-based, murine
Settings: 30 nM dasatinib, 12 hours after wounding
Method: FIG. 4C is a bar graph of closure index for TKp53^L/Lp16^L/L melanoma cells with LKB1 knockdown treated with vehicle (shLkb1+DMSO) or 30 nM dasatinib (shLkb1+Dasatinib) and for TKp53^L/Lp16^L/L melanoma cells without Lkb1 knockdown treated with vehicle (NS+DMSO) or 30 nM dasatinib (NS+Dasatinib). Closure index was measured 12 hours after wounding. The asterisks indicate a significant difference (P<0.05).
The in vitro scratch (wound healing) assay was performed as described previously. See Carretero et al., 2010. Briefly, a 1 mm wide scratch was made on a confluent monolayer, and cells were then allowed to grow under standard conditions for 12 hours. The migrated distance was quantified using Image J™ software. “Close Index” was determined as 1-f, where f is calculated as the remaining gap area divided by the starting scratched area. Cell invasion was measured using matrigel invasion assay using invasion chambers obtained from BD Biosciences (San Jose, Calif., United States of America), with assays performed according to the manufacturer's instructions. Cells of the indicated genotypes (2.5×10^4) were added to the upper chamber in 500 uL of serum-free medium, and the lower chamber was filled with 750 uL of medium containing 10% fetal bovine serum (FBS) as an attractant. After 24 hours of incubation, cells on the underside of the filter were fixed, stained and counted. […]

Cc1nc(Nc2ncc(C(=O)Nc3c(C)cccc3Cl)s2)cc(N2CCN(CCO)CC2)n1 [dasatinib]
decrease in cell migration (closure index) (Lkb-intact melanoma cells (NS)): 14% | decrease in cell migration (closure index) (melanoma cells with Lkb1 knockdown (shLkb1)): 27%

— patent US20140378469A1, “LKB1/STK11 DELETION IN MELANOMA AND RELATED METHODS” (The University of North Carolina at Chapel Hill, priority 2012, published 2014)
